Source: patent US20230066946A1, “1,5-DIPHENYLPYRAZOLYL-3-OXYALKYL ACIDS AND 1-PHENYL-5-THIENYLPYRAZOLYL-3-OXYALKYL ACIDS AND THE USE THEREOF FOR CONTROL OF UNWANTED PLANT GROWTH” (Bayer Aktiengesellschaft, priority 2019, published 2023)

Tests used:
STEME [1] = test: Pre-emergence herbicidal action against STEME; type: in vivo, Stellaria media; conditions: 1280 g/ha, scored visually after about 3 weeks vs untreated controls
Text: (§1) Seeds of mono- and dicotyledonous weed plants are placed in plastic pots in sandy loam soil (doubly sown with one species each of mono- or dicotyledonous weed plants per pot) and covered with soil. The compounds of the invention, formulated in the form of wettable powders (WP) or as emulsion concentrates (EC), are then applied onto the surface of the covering soil as aqueous suspension or emulsion with addition of 0.5% additive at a water application rate equivalent to 600 litres per hectare. After the treatment, the pots are placed in a greenhouse and kept under good growth conditions for the trial plants. After about 3 weeks, the effect of the preparations is scored visually in comparison with untreated controls as percentages. For example, 100% activity=the plants have died, 0% activity=like control plants. [table] Tables 4.1-4.15 below show the effects of selected compounds of the general formula (I) according to Tables 1 to 3 on various harmful plants at an application rate corresponding to 1280 or 320 g/ha, which have been obtained by the aforementioned experimental method.

AMARE [2] = test: Post-emergence herbicidal action against AMARE; type: in vivo, Amaranthus retroflexus; conditions: 1280 g/ha, visual rating about 3 weeks after treatment
Procedure: (§2) [table] Seeds of mono- and dicotyledonous weed plants are placed in plastic pots in sandy loam soil (twin sowing with one species each of mono- or dicotyledonous weed plants per pot), covered with soil and cultivated in a greenhouse under controlled growth conditions. 2 to 3 weeks after sowing, the test plants are treated at the one-leaf stage. The compounds of the invention, formulated in the form of wettable powders (WP) or as emulsion concentrates (EC), are applied to the green parts of the plants as aqueous suspension or emulsion with addition of 0.5% additive at a water application rate equivalent to 600 litres per hectare. After the test plants have been kept in the greenhouse under optimum growth conditions for about 3 weeks, the activity of the preparations is rated visually in comparison to untreated controls. For example, 100% activity=the plants have died, 0% activity=like control plants. Tables 5.1-5.16 below show the effects of selected compounds of the general formula (I) according to Tables 1 to 3 on various harmful plants at an application rate corresponding to 1280 or 320 g/ha, which have been obtained by the aforementioned experimental method.

SETVI = test: Pre-emergence herbicidal action against SETVI; type: in vivo, Setaria viridis; conditions: 1280 g/ha, scored visually after about 3 weeks vs untreated controls
Text: as §1

AMARE [3] = test: Pre-emergence herbicidal action against AMARE; type: in vivo, Amaranthus retroflexus; conditions: 1280 g/ha, scored visually after about 3 weeks vs untreated controls
Text: as §1

STEME [4] = test: Post-emergence herbicidal action against STEME; type: in vivo, Stellaria media; conditions: 1280 g/ha, visual rating about 3 weeks after treatment
Procedure: as §2

MATIN = test: Post-emergence herbicidal action against MATIN; type: in vivo, Matricaria inodora; conditions: 1280 g/ha, visual rating about 3 weeks after treatment
Procedure: as §2

Row | SMILES | Pre-emergence action against STEME in % (STEME [1]) [%] | Post-emergence action against AMARE in % (AMARE [2]) [%] | Pre-emergence action against SETVI in % (SETVI) [%] | Pre-emergence action against AMARE in % (AMARE [3]) [%] | Post-emergence action against STEME in % (STEME [4]) [%] | Post-emergence action against MATIN in % (MATIN) [%]
1 | COC(=O)COc1nn(-c2ccc(C)cc2)c(-c2cccc(F)c2)c1C#N [I-020] | 80 | – | – | – | – | –
2 | COC(=O)COc1nn(-c2ccc(Cl)c(Cl)c2)c(-c2ccc(F)c(F)c2)c1Cl [I-027] | – | 80 | – | – | – | –
3 | CCOC(=O)COc1nn(-c2ccc(Cl)cc2)c(-c2ccc(F)cc2)c1Br [I-078] | – | 100 | 100 | 90 | – | –
4 | CCOC(=O)COc1nn(-c2ccc(F)cc2)c(-c2ccc(F)cc2F)c1Br [I-086] | 90 | 100 | 90 | 100 | – | –
5 | CCOC(=O)COc1nn(-c2ccc(F)cc2F)c(-c2ccc(F)cc2F)c1Br [I-088] | 100 | 100 | 90 | 90 | 100 | 90
6 | CCOC(=O)COc1nn(-c2ccccc2OC)c(-c2ccc(F)cc2F)c1Br [I-091] | – | 100 | 90 | 100 | – | –
7 | CCOC(=O)COc1nn(-c2ccccc2OC)c(-c2ccccc2)c1Br [I-092] | 100 | 100 | 100 | 100 | – | –
8 | COC(=O)COc1nn(-c2ccccc2F)c(-c2ccc(F)s2)c1Cl [I-094, Methyl {[4-chloro-1-(2-fluorophenyl)-5-(5-fluoro-2-thienyl)-1H-pyrazol-3-yl]oxy}acetate] | 100 | 100 | 100 | 100 | – | –
9 | COC(=O)COc1nn(-c2ccccc2F)c(-c2ccc(F)s2)c1Br [I-095] | 100 | 100 | 100 | 100 | – | 100
10 | COC(=O)COc1nn(-c2ccccc2F)c(-c2ccc([N+](=O)[O-])cc2)c1[N+](=O)[O-] [I-099] | – | 90 | – | 90 | – | –
11 | COC(=O)COc1nn(-c2ccc(F)cc2)c(-c2cccc(F)c2)c1[N+](=O)[O-] [I-108] | – | – | 100 | 90 | – | –
12 | COC(=O)COc1nn(-c2ccc(F)cc2)c(-c2cccc(F)c2)c1I [I-109] | 100 | 100 | – | – | 90 | –
13 | O=C(COc1nn(-c2ccccc2)c(-c2ccc(F)cc2)c1Br)OCc1ccccc1 [I-112] | 100 | – | – | 100 | – | –
14 | O=C(O)COc1nn(-c2ccc(F)cc2)c(-c2cccc(F)c2)c1I [I-118] | – | – | 90 | 100 | – | –
15 | O=C(COc1nn(-c2ccc(F)cc2)c(-c2cccc(F)c2)c1I)OCc1ccccc1 [I-124] | 100 | – | 100 | – | – | 90
16 | O=C(O)COc1nn(-c2cccc(F)c2)c(-c2ccccc2)c1Br [I-127] | 100 | 90 | 100 | 100 | – | 90
17 | O=C(O)COc1nn(-c2cccc(F)c2)c(-c2ccccc2)c1I [I-128] | 90 | 90 | – | 100 | – | –
18 | O=C(O)COc1nn(-c2cccc(F)c2)c(-c2ccccc2)c1[N+](=O)[O-] [I-129] | 100 | 100 | 100 | 100 | – | 100
19 | COC(=O)C(C)Oc1nn(-c2ccccc2)c(-c2ccc(F)cc2)c1Br (centres unmarked) [I-132, Methyl 2-{[4-bromo-5-(4-fluorophenyl)-1-phenyl-1H-pyrazol-3-yl]oxy}propanoate] | 100 | – | 100 | 100 | 100 | 90

Row | SMILES | Pre-emergence action against STEME in % (STEME [1]) [%] | Post-emergence action against AMARE in % (AMARE [2]) [%] | Pre-emergence action against SETVI in % (SETVI) [%] | Pre-emergence action against AMARE in % (AMARE [3]) [%] | Post-emergence action against STEME in % (STEME [4]) [%] | Post-emergence action against MATIN in % (MATIN) [%]
20 | COC(=O)C(C)(C)Oc1nn(-c2ccccc2)c(-c2ccc(F)cc2)c1Br [I-135] | 100 | – | – | – | – | –
21 | CCOC(=O)COc1nn(-c2c(F)cccc2F)c(-c2ccc(F)c(F)c2)c1[N+](=O)[O-] [I-144] | – | – | 100 | 100 | – | –
22 | CCOC(=O)COc1nn(-c2ccc(Cl)cc2F)c(-c2ccc(F)cc2F)c1Br [I-150] | 100 | – | – | – | 100 | –
23 | CCOC(=O)COc1nn(-c2ccc(Cl)cc2F)c(-c2ccc(F)cc2Cl)c1Br [I-155] | 100 | – | – | 90 | – | –
24 | CCOC(=O)COc1nn(-c2ccc(Cl)cc2F)c(-c2ccc(F)cc2)c1Br [I-156] | 100 | 100 | 90 | 100 | – | 90
25 | COC(=O)C(C)Oc1nn(-c2ccccc2)c(-c2ccccc2F)c1Cl (centres unmarked) [I-166] | 90 | 100 | 90 | 90 | – | 100
26 | COC(=O)C(C)Oc1nn(-c2ccccc2F)c(-c2ccc(F)c(F)c2)c1Br (centres unmarked) [I-170] | 100 | 90 | 100 | 100 | 100 | –
27 | CCCN.O=C(O)COc1nn(-c2cccc(F)c2)c(-c2ccccc2)c1I [II-06] | 90 | – | – | 90 | 100 | –
28 | CCCN(CCC)CCC.O=C(O)COc1nn(-c2cccc(F)c2)c(-c2ccccc2)c1I [II-07] | 90 | – | – | 90 | – | –
29 | CCNC.O=C(O)COc1nn(-c2cccc(F)c2)c(-c2ccccc2)c1I [II-08] | – | – | – | – | 90 | –
30 | CC(C)(C)N.O=C(O)COc1nn(-c2cccc(F)c2)c(-c2ccccc2)c1I [II-09] | 100 | – | – | 90 | 100 | –
31 | CCN(CC)CC.O=C(O)COc1nn(-c2cccc(F)c2)c(-c2ccccc2)c1I [II-14] | – | – | – | 100 | – | –
32 | C=CCNC(=O)COc1nn(-c2ccc(F)cc2)c(-c2cccc(F)c2)c1I [III-008] | 100 | – | – | – | 100 | –
33 | CC#CCNC(=O)COc1nn(-c2ccc(F)cc2)c(-c2cccc(F)c2)c1Br [III-017] | 100 | 100 | 100 | 100 | – | –
34 | O=C(COc1nn(-c2ccc(F)cc2)c(-c2cccc(F)c2)c1Br)NC1CC1 [III-018] | 100 | 100 | 90 | 90 | – | –
35 | O=C(COc1nn(-c2ccc(F)cc2)c(-c2cccc(F)c2)c1Cl)NCC1CC1 [III-025] | 100 | 90 | – | – | 100 | –
36 | COC(=O)CNC(=O)COc1nn(-c2cccc(F)c2)c(-c2ccccc2)c1[N+](=O)[O-] [III-029] | – | – | – | 90 | – | –
37 | COC(=O)CNC(=O)C(C)Oc1nn(-c2ccccc2)c(-c2ccc(F)cc2)c1Br (centres unmarked) [III-056, Methyl N-(2-{[4-bromo-5-(4-fluorophenyl)-1-phenyl-1H-pyrazol-3-yl]oxy}propanoyl)glycinate] | 100 | – | 90 | 100 | – | 90
